Experimental data as given in PubChem BioAssay (NCI).
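Briefly, cells in 96-well plates were exposed to five compound concentrations for 48 h, and endpoints were estimated by linear interpolation. The concentration for 50% growth inhibition is given as GI50. TGI marks complete inhibition of growth.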

Key:
Assay in all cases: NCI tumour cell line growth inhibition, 48 h
[1] = test system: LXFL 529 NSCLC
[2] = test system: XF 498 CNS
[3] = test system: RXF-631 renal
[4] = test system: DLD-1 colon
[5] = test system: SNB-78 CNS
[6] = test system: DMS 114 small cell lung
[7] = test system: P388/ADR leukemia
[8] = test system: SN12K1 renal
[9] = test system: P388 leukemia

## CCCCC#C[I+]c1ccccc1
[1]
  TGI: 24.6 µM
[2]
  TGI: 28.6 µM
[3]
  TGI: 35.6 µM
[4]
  TGI: 38.2 µM
[5]
  TGI: 60.3 µM

## O=C(NC(=O)c1ccccc1[N+](=O)[O-])Nc1ccc(Oc2ncc(Br)cn2)c(Cl)c1
[1]
  GI50: < 0.0224 µM
[2]
  GI50: < 0.0251 µM
[3]
  TGI: 0.056 µM
[6]
  GI50: 0.00331 µM
[4]
  GI50: < 0.0201 µM

## CCC(C(=O)O)c1ccc(OC)cc1 (centres undefined)
[1]
  TGI: > 100 µM
[2]
  TGI: > 100 µM
[3]
  TGI: > 100 µM
[6]
  TGI: > 100 µM
[4]
  TGI: > 100 µM
[5]
  TGI: > 100 µM

## O=C(CCN1CCCCC1)C(=Cc1ccccc1)C(=O)CCN1CCCCC1
[2]
  GI50: 5.35 µM
  TGI: > 100 µM
[7]
  TGI: > 72.4 µM
[8]
  TGI: > 100 µM
[9]
  TGI: > 31.6 µM
[6]
  GI50: 38.7 µM
[4]
  TGI: 44.5 µM
[5]
  GI50: 3.5 µM
  TGI: > 100 µM

## CC(C)CCS(=O)(=O)OCCCCOS(=O)(=O)CCC(C)C
[1]
  TGI: > 100 µM
[6]
  TGI: > 100 µM
[4]
  TGI: > 100 µM
[5]
  TGI: > 100 µM

## C=C(C)C(=O)OC1C/C(CO)=C\C(O)C/C(C)=C/C2OC(=O)C(=C)C21 (centres undefined)
[1]
  TGI: 32.2 µM
[2]
  TGI: 29.3 µM
[3]
  TGI: 36.7 µM
[6]
  TGI: 60.8 µM
[5]
  TGI: > 100 µM
